In assay [1] the target is Cyclin-dependent kinase 5/CDK5 activator 1 (Homo sapiens) (UniProt Q00535+Q15078). Nature of the assay: Inhibition of CDK5/p25 (unknown origin) at 10 uM after 120 mins P33 radiolabeled kinase activity assay. Type of assay: protein-complex assay.
Assay [2] concerns the target Dual specificity testis-specific protein kinase 1 (Homo sapiens) (UniProt Q15569). Kind of assay: Inhibition of TESK1 (unknown origin) at 10 uM after 120 mins P33 radiolabeled kinase activity assay.
The target in assay [3] is Tyrosine-protein kinase receptor UFO (Homo sapiens) (UniProt P30530). Kind of assay: Inhibition of AXL (unknown origin) at 10 uM after 120 mins P33 radiolabeled kinase activity assay.
Tyrosine-protein kinase receptor UFO (Homo sapiens), sequence (P30530 whole entry, the tested form may be a part): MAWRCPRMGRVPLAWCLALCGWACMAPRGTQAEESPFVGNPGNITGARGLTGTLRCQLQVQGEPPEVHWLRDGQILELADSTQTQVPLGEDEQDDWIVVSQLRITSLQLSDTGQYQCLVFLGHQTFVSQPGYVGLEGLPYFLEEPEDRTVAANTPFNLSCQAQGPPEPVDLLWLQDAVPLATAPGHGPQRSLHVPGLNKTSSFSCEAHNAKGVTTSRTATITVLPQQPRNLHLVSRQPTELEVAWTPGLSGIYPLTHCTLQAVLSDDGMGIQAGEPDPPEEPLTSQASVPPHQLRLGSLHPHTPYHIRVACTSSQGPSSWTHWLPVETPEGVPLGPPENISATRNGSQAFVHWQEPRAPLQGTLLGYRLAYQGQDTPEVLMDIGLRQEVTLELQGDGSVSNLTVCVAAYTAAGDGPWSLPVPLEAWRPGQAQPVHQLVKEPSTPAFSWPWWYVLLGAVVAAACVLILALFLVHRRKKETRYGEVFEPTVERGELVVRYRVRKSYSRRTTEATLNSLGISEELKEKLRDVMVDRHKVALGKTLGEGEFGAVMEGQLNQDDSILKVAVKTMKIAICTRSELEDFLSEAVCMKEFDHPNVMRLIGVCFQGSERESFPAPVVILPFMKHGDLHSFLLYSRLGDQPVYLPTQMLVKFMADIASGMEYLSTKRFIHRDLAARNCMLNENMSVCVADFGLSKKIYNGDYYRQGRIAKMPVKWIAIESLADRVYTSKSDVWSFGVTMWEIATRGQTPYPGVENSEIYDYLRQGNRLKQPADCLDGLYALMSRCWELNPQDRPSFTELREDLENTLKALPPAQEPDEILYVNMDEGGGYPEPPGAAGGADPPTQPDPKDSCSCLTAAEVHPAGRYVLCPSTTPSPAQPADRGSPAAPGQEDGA
The target in assay [4] is PAS domain-containing serine/threonine-protein kinase (Homo sapiens) (UniProt Q96RG2). Nature of the assay: Inhibition of PASK (unknown origin) at 10 uM after 120 mins P33 radiolabeled kinase activity assay.
PAS domain-containing serine/threonine-protein kinase (Homo sapiens), sequence (Q96RG2 whole entry, the tested form may be a part): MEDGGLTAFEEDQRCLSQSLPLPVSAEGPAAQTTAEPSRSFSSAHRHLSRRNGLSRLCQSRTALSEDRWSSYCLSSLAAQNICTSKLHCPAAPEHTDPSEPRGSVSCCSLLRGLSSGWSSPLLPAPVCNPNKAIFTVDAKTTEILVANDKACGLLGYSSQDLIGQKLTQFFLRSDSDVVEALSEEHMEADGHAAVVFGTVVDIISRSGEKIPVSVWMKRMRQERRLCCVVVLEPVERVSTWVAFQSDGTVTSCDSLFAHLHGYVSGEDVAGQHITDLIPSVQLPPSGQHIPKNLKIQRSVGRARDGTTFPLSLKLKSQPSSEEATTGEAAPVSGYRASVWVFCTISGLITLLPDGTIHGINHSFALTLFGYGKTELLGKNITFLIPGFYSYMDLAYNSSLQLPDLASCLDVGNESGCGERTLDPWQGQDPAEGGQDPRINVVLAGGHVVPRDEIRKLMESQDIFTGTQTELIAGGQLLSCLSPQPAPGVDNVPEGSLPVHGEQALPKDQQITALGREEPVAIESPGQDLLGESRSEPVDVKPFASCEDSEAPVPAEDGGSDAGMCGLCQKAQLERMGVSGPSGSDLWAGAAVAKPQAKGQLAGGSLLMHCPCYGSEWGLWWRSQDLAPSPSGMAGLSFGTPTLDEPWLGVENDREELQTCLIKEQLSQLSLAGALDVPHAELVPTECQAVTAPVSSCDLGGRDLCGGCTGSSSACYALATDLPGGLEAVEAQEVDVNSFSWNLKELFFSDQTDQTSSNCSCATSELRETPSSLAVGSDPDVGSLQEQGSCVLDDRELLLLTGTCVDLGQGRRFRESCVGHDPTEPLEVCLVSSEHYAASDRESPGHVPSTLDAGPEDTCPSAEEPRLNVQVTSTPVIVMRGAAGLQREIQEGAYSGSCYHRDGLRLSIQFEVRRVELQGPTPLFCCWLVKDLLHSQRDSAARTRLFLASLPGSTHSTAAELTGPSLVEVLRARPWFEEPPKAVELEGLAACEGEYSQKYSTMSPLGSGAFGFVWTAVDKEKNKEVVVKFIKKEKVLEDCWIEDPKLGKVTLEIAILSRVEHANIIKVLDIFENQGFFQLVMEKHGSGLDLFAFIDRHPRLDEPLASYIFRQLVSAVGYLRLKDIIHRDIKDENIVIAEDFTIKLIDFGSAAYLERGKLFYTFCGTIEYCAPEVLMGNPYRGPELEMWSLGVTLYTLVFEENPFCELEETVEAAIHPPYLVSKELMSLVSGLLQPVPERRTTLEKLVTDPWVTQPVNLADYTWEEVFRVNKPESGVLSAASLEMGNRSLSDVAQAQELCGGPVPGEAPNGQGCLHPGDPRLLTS
The target in assay [5] is T1, Mitogen-activated protein kinase kinase kinase 2 (Homo sapiens) (UniProt Q9Y2U5).
T1 sequence (whole entry): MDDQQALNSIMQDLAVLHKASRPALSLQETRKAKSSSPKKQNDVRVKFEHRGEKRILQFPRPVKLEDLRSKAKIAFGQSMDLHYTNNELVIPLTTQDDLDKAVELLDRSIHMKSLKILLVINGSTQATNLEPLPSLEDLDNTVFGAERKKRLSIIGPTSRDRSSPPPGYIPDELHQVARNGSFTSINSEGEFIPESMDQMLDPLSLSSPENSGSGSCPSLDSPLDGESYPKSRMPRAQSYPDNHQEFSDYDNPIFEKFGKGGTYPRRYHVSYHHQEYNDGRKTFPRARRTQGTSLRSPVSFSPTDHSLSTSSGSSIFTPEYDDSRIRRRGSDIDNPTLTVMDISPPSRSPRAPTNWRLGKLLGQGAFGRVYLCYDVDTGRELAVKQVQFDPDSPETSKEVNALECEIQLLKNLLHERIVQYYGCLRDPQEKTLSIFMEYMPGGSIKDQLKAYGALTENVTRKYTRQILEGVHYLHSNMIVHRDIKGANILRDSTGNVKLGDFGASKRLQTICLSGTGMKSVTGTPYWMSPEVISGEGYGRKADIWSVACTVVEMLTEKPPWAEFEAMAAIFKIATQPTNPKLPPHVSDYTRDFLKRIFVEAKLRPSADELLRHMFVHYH
Nature of the assay: Inhibition of MEKK2 (unknown origin) at 10 uM after 120 mins P33 radiolabeled kinase activity assay.

In assay [6] the target is Cyclin-dependent kinase 4/cyclin D1 (Homo sapiens) (UniProt P11802+P24385). Kind of assay: Inhibition of CDK4/cyclin D1 (unknown origin) at 10 uM after 120 mins P33 radiolabeled kinase activity assay. Type of assay: protein-complex assay.
Assay [7] addresses Serine/threonine-protein kinase PLK3 (Homo sapiens) (UniProt Q9H4B4). Kind of assay: Inhibition of PLK3 (unknown origin) at 10 uM after 120 mins P33 radiolabeled kinase activity assay.
The target of assay [8] is CDK6/cyclin D1 (Homo sapiens) (UniProt P24385+Q00534). Nature of the assay: Inhibition of CDK6/cyclin D1 (unknown origin) at 10 uM after 120 mins P33 radiolabeled kinase activity assay. Type of assay: protein-complex assay.
The target in assay [9] is T2, Homeodomain-interacting protein kinase 4 (Homo sapiens) (UniProt Q8NE63).
T2 sequence (whole entry): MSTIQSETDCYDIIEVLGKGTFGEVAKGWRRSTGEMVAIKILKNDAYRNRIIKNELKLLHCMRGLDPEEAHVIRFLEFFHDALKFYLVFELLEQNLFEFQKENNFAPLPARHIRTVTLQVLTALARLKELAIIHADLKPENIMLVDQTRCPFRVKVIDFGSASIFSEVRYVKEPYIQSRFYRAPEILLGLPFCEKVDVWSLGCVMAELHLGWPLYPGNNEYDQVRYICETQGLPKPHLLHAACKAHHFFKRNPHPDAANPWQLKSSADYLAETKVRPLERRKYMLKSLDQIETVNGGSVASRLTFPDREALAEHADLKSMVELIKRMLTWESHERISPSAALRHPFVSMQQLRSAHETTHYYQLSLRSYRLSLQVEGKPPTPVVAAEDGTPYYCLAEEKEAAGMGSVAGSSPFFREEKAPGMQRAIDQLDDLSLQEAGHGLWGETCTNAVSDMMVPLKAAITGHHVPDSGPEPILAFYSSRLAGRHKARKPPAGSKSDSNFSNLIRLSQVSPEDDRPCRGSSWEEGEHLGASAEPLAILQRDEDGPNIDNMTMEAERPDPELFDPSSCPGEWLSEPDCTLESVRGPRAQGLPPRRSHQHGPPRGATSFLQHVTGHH
Kind of assay: Inhibition of HIPK4 (unknown origin) at 10 uM after 120 mins P33 radiolabeled kinase activity assay.

The target of assay [10] is STE20/SPS1-related proline-alanine-rich protein kinase (Homo sapiens) (UniProt Q9UEW8). Kind of assay: Inhibition of STK39 (unknown origin) at 10 uM after 120 mins P33 radiolabeled kinase activity assay.

In general, inhibition refers to the relative decrease from the control value, in per cent.

Dual specificity testis-specific protein kinase 1 (Homo sapiens), sequence (Q15569 whole entry, looked up): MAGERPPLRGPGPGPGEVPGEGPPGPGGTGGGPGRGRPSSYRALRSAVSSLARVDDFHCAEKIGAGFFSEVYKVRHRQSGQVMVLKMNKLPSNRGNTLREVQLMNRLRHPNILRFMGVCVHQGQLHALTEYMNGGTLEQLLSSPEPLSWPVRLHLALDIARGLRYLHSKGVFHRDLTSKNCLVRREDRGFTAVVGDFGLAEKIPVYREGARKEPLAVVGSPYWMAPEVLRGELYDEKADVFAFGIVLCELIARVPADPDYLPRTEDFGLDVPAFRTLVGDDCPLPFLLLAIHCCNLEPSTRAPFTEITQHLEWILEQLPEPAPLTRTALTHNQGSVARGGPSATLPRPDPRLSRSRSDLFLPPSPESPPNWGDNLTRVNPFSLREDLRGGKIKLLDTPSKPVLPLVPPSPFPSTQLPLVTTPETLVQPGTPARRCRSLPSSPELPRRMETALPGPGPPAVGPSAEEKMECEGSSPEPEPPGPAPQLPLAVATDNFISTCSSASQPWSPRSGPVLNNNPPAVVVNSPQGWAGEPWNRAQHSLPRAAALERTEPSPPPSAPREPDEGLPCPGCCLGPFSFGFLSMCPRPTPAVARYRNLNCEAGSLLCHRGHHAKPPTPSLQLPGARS
Serine/threonine-protein kinase PLK3 (Homo sapiens), sequence (Q9H4B4 whole entry, looked up): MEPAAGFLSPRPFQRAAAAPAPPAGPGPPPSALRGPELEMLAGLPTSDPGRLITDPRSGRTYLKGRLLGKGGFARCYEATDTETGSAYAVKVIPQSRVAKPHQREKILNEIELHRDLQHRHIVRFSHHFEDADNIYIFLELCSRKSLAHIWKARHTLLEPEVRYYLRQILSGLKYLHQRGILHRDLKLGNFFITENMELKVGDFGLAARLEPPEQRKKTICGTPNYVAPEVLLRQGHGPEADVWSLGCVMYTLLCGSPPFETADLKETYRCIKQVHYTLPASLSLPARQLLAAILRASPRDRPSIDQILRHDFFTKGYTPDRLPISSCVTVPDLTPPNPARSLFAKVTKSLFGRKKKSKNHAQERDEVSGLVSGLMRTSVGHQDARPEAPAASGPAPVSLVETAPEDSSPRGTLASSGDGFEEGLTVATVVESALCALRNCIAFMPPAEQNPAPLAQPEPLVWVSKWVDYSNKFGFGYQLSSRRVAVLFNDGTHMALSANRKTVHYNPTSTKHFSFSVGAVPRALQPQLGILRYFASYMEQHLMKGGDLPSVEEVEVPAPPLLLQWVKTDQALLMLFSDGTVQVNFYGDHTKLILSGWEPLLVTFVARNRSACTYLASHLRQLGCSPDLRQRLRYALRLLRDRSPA
Cyclin-dependent kinase 5/CDK5 activator 1 (Homo sapiens), sequence (Q00535 whole entry): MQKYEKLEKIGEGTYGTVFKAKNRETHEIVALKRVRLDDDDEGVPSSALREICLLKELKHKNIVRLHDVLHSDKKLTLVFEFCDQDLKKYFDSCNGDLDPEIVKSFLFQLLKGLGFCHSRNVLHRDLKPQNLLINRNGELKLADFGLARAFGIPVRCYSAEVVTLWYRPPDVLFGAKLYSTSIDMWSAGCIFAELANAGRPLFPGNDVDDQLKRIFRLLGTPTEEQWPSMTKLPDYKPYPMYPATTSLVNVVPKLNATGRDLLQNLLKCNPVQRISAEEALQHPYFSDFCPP
Cyclin-dependent kinase 5/CDK5 activator 1 (Homo sapiens), sequence (Q15078 99-307 partner limits assumed): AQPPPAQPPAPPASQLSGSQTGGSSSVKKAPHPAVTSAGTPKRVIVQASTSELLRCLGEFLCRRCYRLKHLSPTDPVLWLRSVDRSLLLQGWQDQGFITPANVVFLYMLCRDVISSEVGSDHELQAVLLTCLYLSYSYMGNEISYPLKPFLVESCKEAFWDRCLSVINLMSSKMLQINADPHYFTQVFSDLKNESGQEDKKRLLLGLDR

Regarding `CS(=O)(=O)c1cccc(Nc2nccc(-c3sc(N4CCOCC4)nc3-c3cccc(NS(=O)(=O)c4c(F)cccc4F)c3)n2)c1`, the inhibition is 92.6% in assay [1]; 97% in assay [2]; 82.1% in assay [3]; -0.14% in assay [4]; 55% in [5]; 74.5% in assay [6]. Besides, the inhibition in assay [7] stood at 3.68%; in assay [8], 26.4%; in [9], 97%; in [10], 28.6%.

On to `CC(C)(C)c1cc(NC(=O)Nc2ccc(Oc3ccncc3)cc2)no1`, for which the inhibition in [1] was determined as 49.4%; in [2], 20%; in [3] it was 86.6%; in assay [4], 10.9%; in assay [5] it was 23.3%; in assay [6], 43%. The inhibition in assay [7] is -1.93%; in [8], 17.4%; in assay [9], 96.7%; in assay [10], 52.4%.

With `COCCNC(=O)c1ccc2c(c1)nc(-c1cnc(-c3ccc(Cl)cc3)[nH]1)n2CCOC`, the inhibition was 1.93% in assay [1]; 4.86% in assay [2]; 7.68% in assay [3]; -2.42% in [4]; 16.7% in assay [5]; -1.3% in assay [6]. The inhibition in [7] was 0.99%; in [8], 3.54%; in [9] it was -9.28%; in [10], 6.77%.

The values above are taken from ChEMBL document CHEMBL3627608, “Crystal structures of human RIP2 kinase catalytic domain complexed with ATP-competitive inhibitors: Foundations for understanding inhibitor selectivity” (Bioorg Med Chem, 2015).
